This experiment has as its target T1, Cholesterol side-chain cleavage enzyme, mitochondrial (Bos taurus, UniProt P00189).
T1 sequence (P00189 whole entry): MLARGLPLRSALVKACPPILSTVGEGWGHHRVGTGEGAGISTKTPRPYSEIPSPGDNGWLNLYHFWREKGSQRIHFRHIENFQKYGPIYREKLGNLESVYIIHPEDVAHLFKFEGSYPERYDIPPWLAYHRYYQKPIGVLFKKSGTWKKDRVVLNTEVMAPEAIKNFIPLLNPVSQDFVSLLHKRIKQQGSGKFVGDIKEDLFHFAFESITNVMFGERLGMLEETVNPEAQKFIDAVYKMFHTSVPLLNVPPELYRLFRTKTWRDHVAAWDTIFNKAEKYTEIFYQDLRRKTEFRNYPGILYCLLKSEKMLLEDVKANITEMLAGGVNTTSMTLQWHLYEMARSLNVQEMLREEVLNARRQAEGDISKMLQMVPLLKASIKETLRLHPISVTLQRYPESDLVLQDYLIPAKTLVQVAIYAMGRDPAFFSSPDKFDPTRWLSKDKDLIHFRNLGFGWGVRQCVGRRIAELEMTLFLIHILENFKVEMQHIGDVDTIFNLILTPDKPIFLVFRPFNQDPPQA
As to conditions: read-out: I50.

Turning to `C#CCN1C(=O)C2CC2(c2ccc(N)cc2)C1=O` (stereo not drawn), the IC50 came to 292 µM.

For `CN1C(=O)C2CC2(c2ccc(N)cc2)C1=O` (stereo not drawn), the IC50 worked out at 460 µM.

In the case of `CC(C)N1C(=O)C2CC2(c2ccc(N)cc2)C1=O` (stereo not drawn), the IC50 came to 320 µM.

With `CC(C)(C)CN1C(=O)C2CC2(c2ccc(N)cc2)C1=O` (stereo not drawn), the IC50 turned out to be 294 µM.

Turning to `Nc1ccc(C23CC2C(=O)N(Cc2ccccc2)C3=O)cc1` (stereo not drawn), the IC50 was 290 µM.

Take `CC(C)CN1C(=O)C2CC2(c2ccc(N)cc2)C1=O` (stereo not drawn): the IC50 stood at 310 µM.

For the molecule `C=CCN1C(=O)C2CC2(c2ccc(N)cc2)C1=O` (stereo not drawn), the IC50 stood at 274 µM.

For the molecule `CCN1C(=O)C2CC2(c2ccc(N)cc2)C1=O` (stereo not drawn), the IC50 was 305 µM.

These data come from ChEMBL document CHEMBL1124116 (J Med Chem, 1988).
